Measured values as given in ChEMBL document CHEMBL4145590, “SAR Studies of N-[2-(1H-Tetrazol-5-yl)phenyl]benzamide Derivatives as Potent G Protein-Coupled Receptor-35 Agonists” (ACS Med Chem Lett, 2018).
Active and inactive are the calls of the source. The calls are words filed in the database; no cut-off is given here.

Columns and labels:
[1] = target: T1, G-protein coupled receptor 35 (Homo sapiens, UniProt Q9HC97); assay: Agonist activity at GPR35 in human HT-29 cells by dynamic mass redistribution assay; format: functional, cell-based
T1 sequence (Q9HC97 whole entry): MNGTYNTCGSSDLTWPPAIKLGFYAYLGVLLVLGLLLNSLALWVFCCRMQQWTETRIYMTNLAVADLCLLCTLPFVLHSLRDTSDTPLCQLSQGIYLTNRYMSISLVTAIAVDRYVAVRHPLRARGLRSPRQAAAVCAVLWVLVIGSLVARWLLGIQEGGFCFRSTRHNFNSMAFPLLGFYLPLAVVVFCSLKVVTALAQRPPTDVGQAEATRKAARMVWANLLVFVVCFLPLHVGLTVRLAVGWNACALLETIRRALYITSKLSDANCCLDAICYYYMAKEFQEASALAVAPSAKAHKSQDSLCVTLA

[2] = target: T1, G-protein coupled receptor 35; assay: Desensitization of GPR35 in human HT-29 cells assessed as inhibition of zaprinast-induced dynamic mass redistribution pretreated for 1 hr followed by zaprinast stimulation; format: functional, cell-based
[3] = target: T1, G-protein coupled receptor 35; assay: Agonist activity at GPR35 in human HT-29 cells in presence of GPR35 antagonist ML-145 by dynamic mass redistribution assay; format: functional, cell-based
[4] = target: T1, G-protein coupled receptor 35; assay: Agonist activity at recombinant human N-terminal FLAG/eYFP-fused GPR35a expressed in CHOK1 cells assessed as induction of beta-arrestin recruitment by path hunter assay; format: cell-based
[5] = target: G protein-coupled receptor GPR35 (Rattus norvegicus, UniProt Q33BM1); assay: Agonist activity at recombinant rat N-terminal FLAG/eYFP-fused GPR35 expressed in HEK293 cells assessed as induction of beta-arrestin recruitment by BRET assay; format: functional, cell-based
Chain of G protein-coupled receptor GPR35 (Q33BM1 whole entry, the tested form may be a part): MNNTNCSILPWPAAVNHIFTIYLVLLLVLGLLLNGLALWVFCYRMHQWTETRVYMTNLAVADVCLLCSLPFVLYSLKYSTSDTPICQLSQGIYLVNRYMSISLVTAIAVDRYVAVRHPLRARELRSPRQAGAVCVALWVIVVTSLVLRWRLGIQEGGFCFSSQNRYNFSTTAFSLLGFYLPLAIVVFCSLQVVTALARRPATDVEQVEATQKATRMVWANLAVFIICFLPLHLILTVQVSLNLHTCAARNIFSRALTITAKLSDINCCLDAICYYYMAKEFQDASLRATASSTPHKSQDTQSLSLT

[6] = target: T1, G-protein coupled receptor 35; assay: Agonist activity at GPR35 in human HT-29 cells assessed as increase in ERK1/2 phosphorylation at 0.1 to 1 uM pretreated for 10 mins followed by GPR35 antagonist ML-145 addition measured after 5 mins by Western blot analysis; format: functional, cell-based
[7] = target: T1, G-protein coupled receptor 35; assay: Agonist activity at GPR35 in human HT-29 cells assessed as increase in ERK1/2 phosphorylation at 0.1 to 1 uM after 15 mins by Western blot analysis; format: functional, cell-based

| SMILES | Activity [1] | EC50 ([1]; read-out: EC50) | Activity [3] | EC50 [4] | EC50 [5] | EC50 ([1]; ht-29) | Activity [6] | Activity [7] | IC50 [2] |
| --- | --- | --- | --- | --- | --- | --- | --- | --- | --- |
| COc1ccc(C(=O)Nc2ccc(Br)cc2-c2nnn[nH]2)cc1 | Dose-dependent effect | 300 nM | inactive |  |  |  |  |  | 110 nM |
| O=C(Nc1cc(Br)ccc1-c1nnn[nH]1)c1cccc(C(F)(F)F)c1 | Dose-dependent effect | 4600 nM | inactive |  |  |  |  |  | 1280 nM |
| Cc1cccc(C(=O)Nc2cc(Br)ccc2-c2nnn[nH]2)c1 | Dose-dependent effect | 860 nM | inactive |  |  |  |  |  | 360 nM |
| O=C(Nc1cc(Br)ccc1-c1nnn[nH]1)c1ccco1 | Dose-dependent effect | 1060 nM | inactive |  |  |  |  |  | 440 nM |
| O=C(Nc1cc(Br)ccc1-c1nnn[nH]1)c1cccs1 | Dose-dependent effect | 510 nM | inactive |  |  |  |  |  | 260 nM |
| Cc1cccn2c(=O)c(-c3nnn[nH]3)cnc12 [PEMIROLAST] |  |  |  |  | 95 nM |  |  |  |  |
| Nc1ccc(Br)cc1-c1nnn[nH]1 | Dose-dependent effect | 44100 nM | inactive |  |  |  |  |  | 75300 nM |
| COc1ccccc1C(=O)Nc1cc(Br)ccc1-c1nnn[nH]1 | Dose-dependent effect | 860 nM | inactive |  |  |  |  |  | 400 nM |
| O=C(Nc1cc(Br)ccc1-c1nnn[nH]1)c1cccc(F)c1 | Dose-dependent effect | 610 nM | inactive |  |  |  |  |  | 210 nM |
| COc1ccc(C(=O)Nc2ccccc2C#N)cc1 |  |  | inactive |  |  | Not Active |  |  |  |
| O=C(Nc1cc(Br)ccc1-c1nnn[nH]1)c1ccccc1 | Dose-dependent effect | 870 nM | inactive |  |  |  |  |  | 300 nM |
| O=C(Nc1cc(Br)ccc1-c1nnn[nH]1)c1ccc(F)cc1F | Dose-dependent effect | 130 nM | inactive |  |  |  | inactive | Active | 60 nM |
| COc1ccc(C(=O)Nc2cc(Br)ccc2-c2nnn[nH]2)cc1OC | Dose-dependent effect | 830 nM | inactive |  |  |  |  |  | 260 nM |
| COc1ccc(C(=O)Nc2cc(F)ccc2-c2nnn[nH]2)cc1 | Dose-dependent effect | 200 nM | inactive |  |  |  |  |  | 82 nM |
| O=C(Nc1cc(Br)ccc1-c1nnn[nH]1)c1ccc(F)cc1 | Dose-dependent effect | 450 nM | inactive |  |  |  |  |  | 160 nM |
| COc1ccc(C(=O)Nc2ccccc2-c2nn[nH]n2)cc1 | Dose-dependent effect | 650 nM | inactive |  |  |  |  |  | 280 nM |
| Cc1ccccc1C(=O)Nc1cc(Br)ccc1-c1nnn[nH]1 | Dose-dependent effect | 2050 nM | inactive |  |  |  |  |  | 810 nM |
| COc1ccc(C(=O)Nc2cc(Br)ccc2-c2nnn[nH]2)cc1 | Dose-dependent effect | 59 nM | inactive |  |  |  | inactive | Active | 26 nM |
| O=C(Nc1cc(Br)ccc1-c1nnn[nH]1)c1ccc(C(F)(F)F)cc1 | Dose-dependent effect | 3650 nM | inactive |  |  |  |  |  | 1360 nM |
| O=C(Nc1cc(Br)ccc1-c1nnn[nH]1)C1CCCCC1 | Dose-dependent effect | 440 nM | inactive |  |  |  |  |  | 200 nM |
| COc1cccc(C(=O)Nc2cc(Br)ccc2-c2nnn[nH]2)c1 | Dose-dependent effect | 1940 nM | inactive |  |  |  |  |  | 810 nM |

The next lines start with results.

| Activity [1] | EC50 ([1]; read-out: EC50) | Activity [3] | EC50 [4] | EC50 [5] | EC50 ([1]; ht-29) | Activity [6] | Activity [7] | SMILES | IC50 [2] |
| --- | --- | --- | --- | --- | --- | --- | --- | --- | --- |
| Dose-dependent effect | 520 nM | inactive |  |  |  |  |  | O=C(Nc1cc(Br)ccc1-c1nnn[nH]1)c1ccc(Cl)cc1 | 210 nM |
| Dose-dependent effect | 310 nM | inactive |  |  |  |  |  | O=C(Nc1cc(Br)ccc1-c1nnn[nH]1)c1ccc(Cl)cc1Cl | 110 nM |
| Dose-dependent effect | 1330 nM | inactive |  |  |  |  |  | Cc1ccc(C(=O)Nc2cc(Br)ccc2-c2nnn[nH]2)cc1 | 510 nM |
|  |  |  | 3400 nM |  |  |  |  | O=C1c2ccccc2S(=O)(=O)c2cc(-c3nnn[nH]3)ccc21 [DOXANTRAZOLE] |  |
| Dose-dependent effect | 2180 nM | inactive |  |  |  |  |  | O=C(Nc1cc(Br)ccc1-c1nnn[nH]1)c1cccc(Cl)c1 | 480 nM |
| Dose-dependent effect | 380 nM | inactive |  |  |  |  |  | CC(C)C(=O)Nc1cc(Br)ccc1-c1nnn[nH]1 | 280 nM |
| Dose-dependent effect | 350 nM | inactive |  |  |  |  |  | O=C(Nc1cc(Br)ccc1-c1nnn[nH]1)c1ccccc1F | 170 nM |
| Dose-dependent effect | 870 nM | inactive |  |  |  |  |  | O=C(Nc1cc(Br)ccc1-c1nnn[nH]1)c1ccccc1Cl | 410 nM |
| Dose-dependent effect | 41 nM | inactive |  |  |  |  |  | COc1ccc(C(=O)Nc2cc(Br)ccc2-c2nnn[nH]2)c(F)c1 | 14 nM |
| Dose-dependent effect | 17600 nM | inactive |  |  |  |  |  | COc1ccc(C(=O)Nc2ccc(-c3nnn[nH]3)cc2)cc1 | 8360 nM |
| Dose-dependent effect | 620 nM | inactive |  |  |  |  |  | CCC(=O)Nc1cc(Br)ccc1-c1nnn[nH]1 | 700 nM |
